We go through nine compounds from US8263585B2, “Organic compounds” (Novartis AG, priority 2007, dated 2012).

One may read the IC50 as the concentration that gives 50% inhibition.

The target in this experiment is T1, human PI 3-Kγ (Homo sapiens, UniProt P48736).
T1 construct: Residues 38-1102 of human PI 3-Kγ are subcloned; made in house; host or cells: Sf9 (Spodoptera frugiperda) insect cells, baculovirus
T1 sequence (P48736 38-1102): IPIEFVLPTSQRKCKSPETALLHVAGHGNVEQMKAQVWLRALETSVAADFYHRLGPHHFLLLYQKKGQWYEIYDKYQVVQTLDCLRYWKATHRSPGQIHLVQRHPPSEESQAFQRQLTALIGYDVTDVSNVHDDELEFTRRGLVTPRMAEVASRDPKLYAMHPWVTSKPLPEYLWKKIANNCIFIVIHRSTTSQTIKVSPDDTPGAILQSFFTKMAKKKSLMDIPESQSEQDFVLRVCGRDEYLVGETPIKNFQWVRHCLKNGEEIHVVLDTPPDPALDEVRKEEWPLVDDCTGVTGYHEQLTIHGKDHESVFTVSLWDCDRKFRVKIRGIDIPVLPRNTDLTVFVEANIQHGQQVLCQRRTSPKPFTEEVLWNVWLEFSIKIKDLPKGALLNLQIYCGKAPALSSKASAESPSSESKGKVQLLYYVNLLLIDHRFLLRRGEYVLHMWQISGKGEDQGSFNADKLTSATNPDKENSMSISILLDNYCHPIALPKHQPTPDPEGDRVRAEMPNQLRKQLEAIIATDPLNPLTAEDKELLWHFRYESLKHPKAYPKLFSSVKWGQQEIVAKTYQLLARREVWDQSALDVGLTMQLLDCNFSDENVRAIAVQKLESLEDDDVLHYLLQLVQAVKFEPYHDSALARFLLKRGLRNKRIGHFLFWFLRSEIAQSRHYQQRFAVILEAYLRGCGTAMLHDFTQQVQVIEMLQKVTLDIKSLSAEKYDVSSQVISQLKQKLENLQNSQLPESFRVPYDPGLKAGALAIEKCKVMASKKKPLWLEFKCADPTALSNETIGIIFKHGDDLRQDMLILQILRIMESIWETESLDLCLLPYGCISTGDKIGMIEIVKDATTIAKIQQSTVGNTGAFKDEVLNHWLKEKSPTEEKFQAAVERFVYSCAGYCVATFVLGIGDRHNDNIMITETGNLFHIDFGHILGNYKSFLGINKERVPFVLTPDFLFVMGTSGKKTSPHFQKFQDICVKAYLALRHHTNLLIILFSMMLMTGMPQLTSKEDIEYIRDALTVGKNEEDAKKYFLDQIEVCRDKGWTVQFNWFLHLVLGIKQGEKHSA
Put plainly: in vitro kinase assay (Scintillation Proximity Assay): transfer of terminal phosphate of ATP to phosphatidylinositol. Type of experiment: biochemical. The settings on record: recombinant GST-p110γ, 12.5 μM ATP assay mix, 60 minutes room temperature. The text has this: Baculovirus expressing different fragments of human PI 3-Kγ fused to glutathione S-transferase (GST) have been previously described by Stoyanova, S., Bulgarelli-Leva, G., Kirsch, C., Hanck, T., Klinger, R., Wetzker, R., Wymann, M. P. (1997) Lipid- and protein kinase activities of G protein-coupled PI 3-kinase g: structure-activity analysis and interactions with wortmannin. Biochem. J., 324:489. Residues 38-1102 of human PI 3-Kγ are subcloned into the BamH1 and EcoR1 sites of the transfer vector pAcG2T (Pharmingen) to create a GST-PI 3-Kγ lacking the first 37 residues of PI 3-Kγ. To express the recombinant protein, Sf9 (Spodoptera frugiperda 9) insect cells are routinely maintained at densities between 3×10^5 and 3×10^6 cells/ml in serum containing TNMFH medium (Sigma). Sf9 cells, at a density of 2×10^6 are infected with human […] baculovirus at a multiplicity of infection (m.o.i.) of 1 for 72 hours. The infected cells are harvested by centrifugation at 1400 g for 4 minutes at 4° C. and the cell pellets are frozen at −80° C. Both Sf9 and Sf21 cells work equally well. Sf9 cells (1×10^9) are resuspended in 100 ml cold (4° C.) lysis buffer (50 mM Tris-HCl pH 7.5, 1% Triton X-100, 150 mM NaCl, 1 mM NaF, 2 mM DTT and protease inhibitors. Cells are incubated on ice for 30 minutes then centrifuged at 15000 g for 20 minutes at 4° C. Purification of the supernatant sample is carried out at 4° C. by affinity chromatography using SEPHAROSE™ agarose gel beads coupled to glutathione (from Amersham Pharmacia Biotech). A cell lysate/GST resin ratio of 50:1 is used. The GST resin is firstly pre-rinsed to remove ethanol preservative and then equilibrated with lysis buffer. Cell lysate (supernatant) is added (usually as 50 ml lysate to 1 ml GST resin in 50 ml tubes) and gently rotated on a mixer at 4° C. for 2-3 hours. The unbound flow through sample is collected by centrifugation at 1000 g for 5 minutes at 4° C. using a DENLEY™ centrifuge. The 1 ml GST resin containing bound material is transferred to a 15 ml FALCON™ centrifuge tube for subsequent washing and elution steps. Firstly a series of 3 cycles of washings (mixing by gentle inversion) is performed with 15 ml ice cold wash Buffer A (50 mM Tris-HCl pH 7.5, 1% Triton X-100, 2 mM DTT) interspersed with centrifugation at 1000 g for 5 minutes at 4° C. A final single wash step is performed with 15 ml ice cold wash Buffer B (50 mM Tris-HCl pH 7.5, 2 mM DTT) and then centrifuged at 1050 g for 5 minutes at 4° C. The washed GST resin is finally eluted with 4 cycles of 1 ml ice cold elution buffer (50 mM Tris-HCl pH 7.5, 10 mM reduced glutathione, 2 mM DTT, 150 mM NaCl, 1 mM NaF, 50% ethylene glycol and protease inhibitors) interspersed with centrifugation at 1000 g for 5 minutes at 4° C. Samples are aliquoted and stored at −20° C.
An in vitro kinase assay was established that measures the transfer of the terminal phosphate of adenosine triphosphate to phosphatidylinositol. The kinase reaction is performed in a white 96 well microtitre plate as a Scintillation Proximity Assay. Each well contains 10 μl test compound in 5% dimethylsulphoxide and 20 μl assay mix (40 mM Tris, 200 mM NaCl, 2 mM ethyleneglycol-aminoethyl-tetraacetic acid (EGTA), 15 μg/ml phosphatidylinositol, 12.5 μM adenosine triphosphate (ATP), 25 mM MgCl2, 0.1 μCi [^33P]ATP). The reaction is started by the addition of 20 μl of enzyme mix (40 mM Tris, 200 mM NaCl, 2 mM EGTA containing recombinant GST-p110γ). […]
Background: In a scintillation proximity assay essentially only radioactivity close to the scintillant gives light.
For `Cc1nc(N)ncc1-c1ccc(Cl)c(S(=O)(=O)Nc2ccccc2)c1` [Example 1-1, 5-(2-Amino-4-methyl-pyrimidin-5-yl)-2-chloro-N-phenyl-benzenesulfonamide], the IC50 turned out to be 0.004 µM.
As for `Cc1nc(N)ncc1-c1ccc(Cl)c(S(=O)(=O)N(C)C)c1` [Example 1-15, 5-(2-Amino-4-methyl-pyrimidin-5-yl)-2-chloro-N2N-dimethyl-benzenesulfonamide], the IC50 was 0.239 µM.
Take `Cc1nc(N)ncc1-c1ccc(Cl)c(S(=O)(=O)N2CC(O)C2)c1` [Example 1-30, 1-[5-(2-Amino-4-methyl-pyrimidin-5-yl)-2-chloro-benzenesulfonyl]-azetidin-3-ol]: the 50% inhibitory concentration (IC50) was determined as 0.135 µM.
Turning to `Cc1nc(N)ncc1-c1ccc(Cl)c(NS(=O)(=O)c2ccccc2)c1` [Example 1-50, N-[5-(2-Amino-4-methyl-pyrimidin-5-yl)-2-chloro-phenyl]-benzenesulfonamide], the IC50 is 0.05 µM.
Consider `Cc1nc(N)ncc1-c1ccnc(C(C)(C)C)n1` [Example 2-1, 2-tert-Butyl-4′-methyl-[4,5′]bipyrimidinyl-2′-ylamine], for which the IC50 is 0.223 µM.
For `Cc1nc(N)ncc1-c1ccc(Cl)c(S(=O)(=O)NC2CC2)c1` [Example 3-1, 5-(2-Amino-4-methyl-pyrimidin-5-yl)-2-chloro-N-cyclopropyl-benzenesulfonamide] the value was 0.219 µM; for `Cc1nc(N)ncc1-c1ccc(Cl)c(S(=O)(=O)N[C@H]2CC[C@@H](NC(=O)OC(C)(C)C)CC2)c1` [Example 3-17, cis-{4-[5-(2-Amino-4-methyl-pyrimidin-5-yl)-2-chloro-benzenesulfonylamino]-cyclohexyl}-carbamic acid tert-butyl ester], 0.305 µM.
Regarding `Cc1nc(N)ncc1-c1ccc(Cl)c(NS(=O)(=O)c2cccc(Cl)c2)c1` [Example 3-35, N-[5-(2-Amino-4-methyl-pyrimidin-5-yl)-2-chloro-phenyl]-3-chloro-benzene sulfonamide], the IC50 was 0.016 µM.
For `Cc1nc(N)ncc1-c1ccc(C(F)(F)F)c(S(=O)(=O)N[C@@H]2CCC[C@@H]2O)c1` [Example 3-53, 5-(2-Amino-4-methyl-pyrimidin-5-yl)-N-((1R,2S)-2-hydroxy-cyclopentyl)-2-trifluoromethyl-benzenesulfonamide], the IC50 was 0.108 µM.
